Where a name gives a salt, the structure may show the parent alone. Read-outs that look alike come from different tables or passages of the source.
How the values were obtained:
[1] = Phase solubility studies with cyclodextrins (Higuchi and Connors), complexation efficiency (Loftsson); format: physicochemical; conditions: phosphate buffer; for complexation efficiency (CE), range over the media: citrate buffer, WFI
Method: Cyclodextrins solutions (from 26 mM to 264 mM) were prepared within sodium citrate (50 mM, pH 3) and sodium phosphate (80 mM, pH 2.7) buffer solutions and WFI. […] Aliquots were drawn from these suspensions and filtered through a Pall Life Science (Cortland, NY, USA) 0.45 µm filter with a Versapore acrylic copolymer membrane before quantification. The pH of these suspensions was checked before filtration.
(§1) Quantification of mefloquine was performed using a Shimadzu® Nexera® high-performance liquid chromatography system (Kyoto, Japan). One microliter of samples was eluted on a 150 mm × 2.1 mm 1.7 µm octadodecyl Acquity® column (Waters, Milford, CT, USA) at 40 °C using an isocratic ammonia buffer(120 mM, pH 10):acetonitrile:methanol (40:40:20, v/v/v) mobile phase at a 1 mL/min flow rate. The samples were diluted to 1/10th with the mobile phase before injection. Quantification was performed at 283 nm with daily made calibration curves. This method was linear for concentrations ranging from 10 to 5000 mg/L. The limit of quantification was estimated at […] and the repeatability and intermediate fidelity were good (coefficient of variation < 5%) for concentrations ranging from 50 to 5000 mg/L.
Complexation efficiencies (CE) were determined from the phase solubility studies using the Loftsson method. CE = (D/CD)/(CD) = Slope/(1 − Slope) where (D/CD) is the concentration of dissolved complex; (CD) is the concentration of dissolved free CD, and Slope is the slope of the phase-solubility profile.

[2] = 19F NMR titration, association constant by 1:1 isotherm fit; format: physicochemical; conditions: D2O, 300 K, total 5 mM
Method: The stoichiometry of the complex was determined using Job’s method. […] The total molar concentration and the total volume were kept constant at 5 mM and 500 µL, respectively, and the molar ratio of each component was varied from 0 to 1. Corresponding ^19F NMR spectra were recorded. The observation of chemical shifts varying in a linear fashion with the concentrations of bound species was obtained and affords the corresponding Job plots as described elsewhere.
^19F NMR Titrations: the same experimental data set of Job plot titrations was used. The association constants were obtained by fitting a 1:1 isotherm according to the programs available at http://app.supramolecular.org/bindfit/ (accessed on 19 October 2023).

[3] = Solubility of mefloquine hydrochloride in buffer solutions and water for injection; format: physicochemical; conditions: for solubility at 24 h: thermodynamic from solid
Method: These suspensions were sonicated for 1 h and stirred for 24 h at 24 °C and protected from the light. Aliquots were drawn from these suspensions and filtered through a Pall Life Science (Cortland, NY, USA) 0.45 µm filter with a Versapore acrylic copolymer membrane before quantification. The pH of these suspensions was checked before filtration.
as §1

[4] = Photostability study (ICH), HPLC content; format: physicochemical; conditions: 168 days; for change in mefloquine content: 25 °C, 60% RH, 7500 Lux and 1.1 W/m^2; for color change: light exposure
Method: The solutions were stored in type 1 glass vials (n = 3 for each solution) sealed with a rubber septum. […] Photostability studies were conducted using the Binder KBF P240 climatic chamber (Tuttligen, Germany), equipped with UVA and visible illumination sources set at 7500 Lux and 1.1 W/m^2. The chamber was maintained at a temperature of 25 ± 2 °C and a relative humidity of 60 ± 5% during the 6-months study.
The method was adapted using pharmacopeia recommendations for utilization with the Phenomenex® Kinetex® 2.6 µm, 150 × 2.1 mm column (Torrance, CA, USA), featuring the same octadecyl stationary phase with a smaller particle size. By employing this column, the flow rate was optimized at 0.4 mL/min.

[5] = hydrochloride salt, cited from earlier work
[6] = piperidine's basicity; cited from earlier work
caco-2 = system: caco-2; design: method as in PMID 27045516; conditions: cited from earlier work
p-Gp = conditions: cited from earlier work

| Compound | complexation efficiency (CE), range over the media [1] | average association constant (K1:1) [2] [M⁻¹] | solubility at 24 h ([3]; aqueous buffer, citrate buffer, pH 2.7, 24 °C) [mg/mL] | solubility at 24 h ([3]; aqueous buffer, phosphate buffer, pH 2.6, 24 °C) [mg/mL] | solubility at 24 h ([3]; aqueous buffer, phosphate buffer, pH 6.5, 24 °C) [mg/mL] | change in solubility, citrate buffer compared to phosphate buffer ([3]; same pH value) | solubility compared with previously reported ([3]; versus ref 4) | solubility at 24 h ([3]; water for injection (purified water), purified water, final pH 4.6, 24 °C) [mg/mL] | change in mefloquine content ([4]; 10 mg/mL in 200 mM RAMEB solution) | change in mefloquine content ([4]; 10 mg/mL in acetonitrile:water (50:50)) | color change ([4]; RAMEB solution) | color change ([4]; acetonitrile:water (50:50) solution) | additional peaks (degradation products) in chromatograms ([4]; both solutions) | solubility ([5]; acetate buffer, pH 4.5, 37 °C) [mg/mL] | solubility ([5]; water, pH 6.5, 37 °C) [mg/mL] | pKa [6] | permeability (caco-2) | p-Gp inhibition (p-Gp) | equivalents of cyclodextrin to achieve target concentration of 26.5 mM (10 mg/mL) mefloquine [1] |
| --- | --- | --- | --- | --- | --- | --- | --- | --- | --- | --- | --- | --- | --- | --- | --- | --- | --- | --- | --- |
| CC(O)COC[C@H]1O[C@@H]2O[C@H]3[C@H](O)[C@@H](O)[C@@H](O[C@H]4[C@H](O)[C@@H](O)[C@@H](O[C@H]5[C@H](O)[C@@H](O)[C@@H](O[C@H]6[C@H](O)[C@@H](O)[C@@H](O[C@H]7[C@H](O)[C@@H](O)[C@@H](O[C@H]8[C@H](O)[C@@H](O)[C@@H](O[C@H]1[C@H](O)[C@H]2O)O[C@@H]8COCC(C)O)O[C@@H]7COCC(C)O)O[C@@H]6COCC(C)O)O[C@@H]5COCC(C)O)O[C@@H]4COCC(C)O)O[C@@H]3COCC(C)O (stereo partly drawn) [HP-β-CD, hydroxypropyl-β-cyclodextrin] | 0.1–0.13 | 140.5 | – | – | – | – | – | – | – | – | – | – | – | – | – | – | – | – | – |
| OC(c1cc(C(F)(F)F)nc2c(C(F)(F)F)cccc12)C1CCCCN1 (stereo not drawn) [mefloquine, mefloquine hydrochloride] | – | – | 0.64 | 4.81 | 0.78 | eight-fold decrease | two-fold higher | 4.12 | No substantial change | No substantial change | No color change | No color change | did not reveal any additional peak appearances | 1.950 | 1.806 | 8.6 | around 9 × 10^−6 cm/s | moderate | – |
| randomly methylated β-cyclodextrin [RAMEB] | 0.31–0.38 | 333.4 | – | – | – | – | – | – | – | – | – | – | – | – | – | – | – | – | approximately two |
